Experimental findings from patent US10647743B2, “Method of making biologically active alpha-beta peptides” (priority 2008, dated 2020) are described below.

Like-named read-outs stand apart in the source and are kept apart here. *1 amine or outer side, *2 acyl side, *3 side chain or, on linkers, in order; H or OH if unused. Where a SMILES comes first, the peptide text is derived from it. [ ]: non-standard residue; d: D form. ξ: configuration not given here. ξ(4-Aminopyrrolidine-3-CO) = O=C(C1CNCC1N[*:1])[*:2]; β3hR = N=C(N)NCCC[C@H](N)CC(=O)O; β3hT = C[C@@H](O)[C@H](N)CC(=O)O; β3hE = N[C@@H](CCC(=O)O)CC(=O)O; X1 = O=C(C1CCCC1N[*:1])[*:2]

One data set concerns the target gp41-5 (Human immunodeficiency virus type 1 group M subtype B, UniProt P04578, C598G/DEL582-595/DEL601-626/T627G/W596S). Briefly: biochemical. It is filed as binding, HIV. The following applies: for Ki: competition FP.
Data set [1] concerns the target T1, envelope glycoprotein of the HIV-1 clone HXB2 (Human immunodeficiency virus type 1 group M subtype B, UniProt P04578).
T1 construct: One cell line expresses HIV-1 Env (processed by cellular proteases to generate gp120+gp41); expressed in transfected cells; host or cells: CHO cells expressing HXB2 env (and Tat); U373-MAGI target cells
Briefly: cell-cell fusion assay. The class given is cell-based.

Data set [2] deals with T2, proteinase K (Parengyodontium album, UniProt P06873). The following applies: relative to 3.
Another data set concerns HIV-1 NL4-3. The following applies: read-out: Inhibition of HIV-1 infectivity, IC50 (nM), X4 strains, NL4-3; TZM-bl cells; mean ± S.E.M., three experiments.
The subject of another data set is HIV-1 HC4. The following applies: read-out: Inhibition of HIV-1 infectivity, IC50 (nM), X4 strains, HC4; TZM-bl cells; mean ± S.E.M., three experiments.
Another data set deals with HIV-1 CC 1/85. The following applies: read-out: Inhibition of HIV-1 infectivity, IC50 (nM), R5 strains, CC 1/85; TZM-bl cells; mean ± S.E.M., three experiments.
The test system of the next data set is HIV-1 DJ258. The following applies: read-out: Inhibition of HIV-1 infectivity, IC50 (nM), R5 strains, DJ258; TZM-bl cells; mean ± S.E.M., three experiments.
Data set [3] has as its target T2, proteinase K. Briefly: in vitro. The following applies: for half-life at 20 μM: proteinase K solution in TBS.
The target in another data set is T3, NHR α-peptide 1 (Human immunodeficiency virus type 1 group M subtype B, UniProt P04578).
T3 construct: made in house; host or cells: chemical synthesis (Fmoc solid phase)
Briefly: CD thermal unfolding of 1:1 NHR + CHR peptide mixtures. The following applies: Table 2; CD at 222 nm, 1:1 mixture with NHR α-peptide 1, PBS, 20 μM total peptide. It is filed as physicochemical, HIV. The procedure:
The interactions of select α/β-peptides with the gp41 NHR domain were further investigated by circular dichroism (CD) spectroscopy. The CD spectra of 3, 4, 5, 8, 9 and were measured, both alone (see FIG. 5A) and in a 1:1 mixture with NHR α-peptide 1 (see FIGS. 3A, 3B, 3C, and 3D, respectively). See also FIGS. 5B and 5C for the superimposed spectra. […] The magnitude of the CD signatures among the well-folded mixtures (1+3, 1+5 and 1+10, FIGS. 3A, 3C, and 3D, respectively) are similar, but the ratio of intensities at 208 and 222 nm changes as a function of β-residue content (more β-residues tracks with a less intense peak at 222 nm).
The interactions of CHR α-peptide 3 and α/β-peptide analogues 4, 5, 8 and 10 with a peptide derived from the gp41 NHR domain (1) were investigated by circular dichroism (CD) spectroscopy. […] The magnitude of the CD signatures among the well-folded mixtures (1+3, 1+5, 1+8 and 1+10) are similar, but the ratio of intensities at 208 and 222 nm changes as a function of β-residue content (higher β-residue content is correlated with a less intense peak at 222 nm). This trend is consistent with previous studies on helical oligomers containing mixed α/β backbones.
Circular Dichroism Spectroscopy. Circular dichroism measurements were carried out on an Aviv 202SF Circular Dichroism Spectrophotometer. Samples of each peptide were prepared at 20 μM concentration in PBS. Solutions of 1:1 peptide mixtures were prepared by mixing equal volumes from the same 20 μM stock solutions used for individual peptide measurements. Spectra were recorded in a 1 mm cell with a step size of 1 nm and an averaging time of 5 sec. All spectra are background corrected against buffer measured in the same cell. Thermal melts were carried out in 5-degree increments with an equilibration time of 10 min between each temperature change. Thermal unfolding data were fit to a simple two state folding model Shortle, D.; Meeker, A. K.; Freire, E. Biochemistry 1988, 27, 4761-4768) using GraphPad Prism.

T2 sequence (P06873 106-384): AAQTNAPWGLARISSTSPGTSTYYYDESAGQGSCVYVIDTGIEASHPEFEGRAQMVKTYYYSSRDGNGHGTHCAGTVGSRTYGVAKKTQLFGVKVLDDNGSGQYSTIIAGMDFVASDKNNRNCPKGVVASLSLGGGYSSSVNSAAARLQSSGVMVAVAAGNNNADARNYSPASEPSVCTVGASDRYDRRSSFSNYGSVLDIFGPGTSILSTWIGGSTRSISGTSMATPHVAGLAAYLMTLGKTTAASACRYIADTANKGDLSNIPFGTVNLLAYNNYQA

Take `CC[C@H](C)[C@H](NC(=O)[C@H](C)NC(=O)C[C@H](CCCNC(=N)N)NC(=O)[C@H](CC(=O)O)NC(=O)[C@H](Cc1c[nH]c2ccccc12)NC(=O)C[C@H](C)NC(=O)[C@H](CCC(=O)O)NC(=O)[C@H](Cc1c[nH]c2ccccc12)NC(=O)[C@@H](NC(=O)C[C@@H](NC(C)=O)[C@@H](C)O)[C@@H](C)O)C(=O)N[C@@H](C)C(=O)N[C@@H](CCC(=O)O)CC(=O)N[C@@H](Cc1ccc(O)cc1)C(=O)N[C@@H](C)C(=O)N[C@@H](C)CC(=O)N[C@@H](CCCNC(=N)N)C(=O)N[C@H](C(=O)N[C@@H](CCC(=O)O)C(=O)N[C@@H](C)CC(=O)N[C@@H](CC(C)C)C(=O)N[C@H](C(=O)N[C@@H](CCCNC(=N)N)CC(=O)N[C@@H](C)C(=O)N[C@@H](C)C(=O)N[C@@H](CCC(N)=O)C(=O)N[C@@H](CCC(=O)O)CC(=O)N[C@@H](CCC(N)=O)C(=O)N[C@@H](CCC(N)=O)C(=O)N[C@@H](CCC(=O)O)CC(=O)N[C@@H](CCCCN)C(=O)N[C@@H](CC(N)=O)C(=O)N[C@@H](CCC(=O)O)C(=O)N[C@@H](C)CC(=O)N[C@@H](C)C(=O)N[C@@H](CC(C)C)C(=O)N[C@@H](CCCNC(=N)N)CC(=O)N[C@@H](CCC(=O)O)C(=O)N[C@@H](CC(C)C)C(N)=O)[C@@H](C)CC)[C@@H](C)CC` [compound 4]: the Ki at gp41-5 (Table 2, read-out: gp41-5 Ki) amounted to 3800 nM. In addition, the IC50 came out at 390 ± 40 nM in data set [1]; 700 ± 60 nM in the data set on HIV-1 NL4-3; 590 ± 100 nM in the data set with HIV-1 HC4; 1300 ± 100 nM in the data set on HIV-1 CC 1/85; 960 ± 200 nM in the data set on HIV-1 DJ258. The “fold improvement in stability to proteinase K relative to α-peptide 3” value at proteinase K [2] is 20 fold. In addition, the half-life at 20 μM on proteinase K [3] (Tritirachium album (source organism of proteinase K)) and at proteinase K [3] was 14 min in each case.
With `CC[C@H](C)[C@H](NC(=O)[C@H](C)NC(=O)[C@H](CCCNC(=N)N)NC(=O)[C@H](CC(=O)O)NC(=O)[C@H](Cc1c[nH]c2ccccc12)NC(=O)[C@H](C)NC(=O)[C@H](CCC(=O)O)NC(=O)[C@H](Cc1c[nH]c2ccccc12)NC(=O)[C@@H](NC(=O)[C@@H](NC(C)=O)[C@@H](C)O)[C@@H](C)O)C(=O)N[C@@H](C)C(=O)N[C@@H](CCC(=O)O)C(=O)N[C@@H](Cc1ccc(O)cc1)C(=O)N[C@@H](C)C(=O)N[C@@H](C)CC(=O)N[C@@H](CCCNC(=N)N)C(=O)N[C@H](C(=O)N[C@@H](CCC(=O)O)C(=O)N[C@@H](C)CC(=O)N[C@@H](CC(C)C)C(=O)N[C@H](C(=O)N[C@@H](CCCNC(=N)N)CC(=O)N[C@@H](C)C(=O)N[C@@H](C)C(=O)N[C@@H](CCC(N)=O)C(=O)N[C@@H](CCC(=O)O)CC(=O)N[C@@H](CCC(N)=O)C(=O)N[C@@H](CCC(N)=O)C(=O)N[C@@H](CCC(=O)O)CC(=O)N[C@@H](CCCCN)C(=O)N[C@@H](CC(N)=O)C(=O)N[C@@H](CCC(=O)O)C(=O)N[C@@H](C)CC(=O)N[C@@H](C)C(=O)N[C@@H](CC(C)C)C(=O)N[C@@H](CCCNC(=N)N)CC(=O)N[C@@H](CCC(=O)O)C(=O)N[C@@H](CC(C)C)C(N)=O)[C@@H](C)CC)[C@@H](C)CC` [compound 6], the Ki on gp41-5 (Table 2, read-out: gp41-5 Ki) is 15 nM.
`CC[C@H](C)[C@H](NC(=O)[C@H](C)NC(=O)C1CNCC1NC(=O)[C@H](CC(=O)O)NC(=O)[C@H](Cc1c[nH]c2ccccc12)NC(=O)C1CCCC1NC(=O)[C@H](CCC(=O)O)NC(=O)[C@H](Cc1c[nH]c2ccccc12)NC(=O)[C@@H](NC(=O)C[C@@H](NC(C)=O)[C@@H](C)O)[C@@H](C)O)C(=O)N[C@@H](C)C(=O)N[C@@H](CCC(=O)O)CC(=O)N[C@@H](Cc1ccc(O)cc1)C(=O)N[C@@H](C)C(=O)NC1CCCC1C(=O)N[C@@H](CCCNC(=N)N)C(=O)N[C@H](C(=O)N[C@@H](CCC(=O)O)C(=O)NC1CCCC1C(=O)N[C@@H](CC(C)C)C(=O)N[C@H](C(=O)NC1CNCC1C(=O)N[C@@H](C)C(=O)N[C@@H](C)C(=O)N[C@@H](CCC(N)=O)C(=O)N[C@@H](CCC(=O)O)CC(=O)N[C@@H](CCC(N)=O)C(=O)N[C@@H](CCC(N)=O)C(=O)N[C@@H](CCC(=O)O)CC(=O)N[C@@H](CCCCN)C(=O)N[C@@H](CC(N)=O)C(=O)N[C@@H](CCC(=O)O)C(=O)NC1CCCC1C(=O)N[C@@H](C)C(=O)N[C@@H](CC(C)C)C(=O)NC1CNCC1C(=O)N[C@@H](CCC(=O)O)C(=O)N[C@@H](CC(C)C)C(N)=O)[C@@H](C)CC)[C@@H](C)CC` (stereo partly drawn) [compound 10, Ac-TTWEXWDZAIAEYAXRIEXLIZAAQEQQEKNEXALZEL-NH2] (Ac-[β3hT]TWE[X1]WD[ξ(4-Aminopyrrolidine-3-CO)]AIA[β3hE]YA[X1]RIE[X1]LI[ξ(4-Aminopyrrolidine-3-CO)]AAQ[β3hE]QQ[β3hE]KNE[X1]AL[ξ(4-Aminopyrrolidine-3-CO)]EL-NH2): the “fold difference in affinity for gp41-5 relative to 5” value at gp41-5 is over 45 fold. Besides, the “fold higher affinity for gp41-5 relative to 4” value at gp41-5 (relative to 4) is given as about 380 fold. The “fold improvement of Ki relative to 9” value on gp41-5 (relative to 9) is given as about 10 fold. For the same compound, the “NHR + CHR Tm (° C.)” value at NHR α-peptide 1 amounted to 55 °C. Besides, the “fold improvement in stability to proteinase K relative to α-peptide 3” value on proteinase K [2] amounted to 280 fold. This compound also displayed a half-life at proteinase K [3] of 200 min.
Turning to `CC[C@H](C)[C@H](NC(=O)[C@H](C)NC(=O)C[C@H](CCCNC(=N)N)NC(=O)[C@H](CC(=O)O)NC(=O)[C@H](Cc1c[nH]c2ccccc12)NC(=O)C[C@H](CCC(=O)O)NC(=O)[C@H](CCC(=O)O)NC(=O)[C@H](Cc1c[nH]c2ccccc12)NC(=O)[C@@H](NC(=O)C[C@H](CCCNC(=N)N)NC(C)=O)[C@@H](C)O)C(=O)N[C@@H](C)C(=O)N[C@@H](CCC(=O)O)CC(=O)N[C@@H](Cc1ccc(O)cc1)C(=O)N[C@@H](C)C(=O)N[C@@H](CCCNC(=N)N)CC(=O)N[C@@H](CCCNC(=N)N)C(=O)N[C@H](C(=O)N[C@@H](CCC(=O)O)C(=O)N[C@@H](CCC(=O)O)CC(=O)N[C@@H](CC(C)C)C(=O)N[C@H](C(=O)N[C@@H](CCCNC(=N)N)CC(=O)N[C@@H](C)C(=O)N[C@@H](C)C(=O)N[C@@H](CCC(N)=O)C(=O)N[C@@H](CCC(=O)O)CC(=O)N[C@@H](CCC(N)=O)C(=O)N[C@@H](CCC(N)=O)C(=O)N[C@@H](CCCNC(=N)N)CC(=O)N[C@@H](CCCCN)C(=O)N[C@@H](CC(N)=O)C(=O)N[C@@H](CCC(=O)O)C(=O)N[C@@H](CCC(=O)O)CC(=O)N[C@@H](C)C(=O)N[C@@H](CC(C)C)C(=O)N[C@@H](CCCNC(=N)N)CC(=O)N[C@@H](CCC(=O)O)C(=O)N[C@@H](CC(C)C)C(N)=O)[C@@H](C)CC)[C@@H](C)CC` [compound 17] (Ac-[β3hR]TWE[β3hE]WD[β3hR]AIA[β3hE]YA[β3hR]RIE[β3hE]LI[β3hR]AAQ[β3hE]QQ[β3hR]KNE[β3hE]AL[β3hR]EL-NH2), the Ki at gp41-5 (read-out: Ki for gp41-5) was 11 nM.

In general, Ki refers to a measure of affinity in units of concentration, obtained from inhibition or displacement. A word on the half-life: it is the time in which the quantity being followed falls by half.
